pIC50: −log10 of the molar value. Like-named read-outs stand apart in the source and are kept apart here.
Assays:
[1] = biological target: T1, Human Calpain 2/NS1 (Homo sapiens, UniProt P17655); test: Calpain inhibition continuous fluorescence (FRET) assay, Human Calpain 2/NS1; type: biochemical; conditions: read-out: Human Calpain 2/NS1 IC50
T1 sequence (P17655 1-700): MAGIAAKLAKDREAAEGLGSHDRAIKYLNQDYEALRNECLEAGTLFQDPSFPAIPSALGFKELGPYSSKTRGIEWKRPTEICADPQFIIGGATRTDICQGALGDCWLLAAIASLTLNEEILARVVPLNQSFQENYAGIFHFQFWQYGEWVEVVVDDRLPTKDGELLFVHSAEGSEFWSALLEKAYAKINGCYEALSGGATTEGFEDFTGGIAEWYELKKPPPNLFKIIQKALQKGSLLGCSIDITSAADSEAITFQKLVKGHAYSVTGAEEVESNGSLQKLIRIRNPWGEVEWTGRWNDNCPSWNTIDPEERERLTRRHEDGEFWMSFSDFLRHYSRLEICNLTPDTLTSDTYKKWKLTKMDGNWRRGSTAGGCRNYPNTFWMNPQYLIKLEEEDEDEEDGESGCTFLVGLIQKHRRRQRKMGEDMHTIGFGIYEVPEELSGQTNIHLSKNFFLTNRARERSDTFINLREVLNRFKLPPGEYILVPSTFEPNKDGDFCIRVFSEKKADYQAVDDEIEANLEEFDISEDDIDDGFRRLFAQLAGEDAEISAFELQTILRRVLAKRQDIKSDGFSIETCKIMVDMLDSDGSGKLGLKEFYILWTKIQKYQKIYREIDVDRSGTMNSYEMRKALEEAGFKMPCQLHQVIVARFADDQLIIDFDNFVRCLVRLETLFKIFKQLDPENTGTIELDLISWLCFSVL
T1 sequence (P04632 1-268 partner): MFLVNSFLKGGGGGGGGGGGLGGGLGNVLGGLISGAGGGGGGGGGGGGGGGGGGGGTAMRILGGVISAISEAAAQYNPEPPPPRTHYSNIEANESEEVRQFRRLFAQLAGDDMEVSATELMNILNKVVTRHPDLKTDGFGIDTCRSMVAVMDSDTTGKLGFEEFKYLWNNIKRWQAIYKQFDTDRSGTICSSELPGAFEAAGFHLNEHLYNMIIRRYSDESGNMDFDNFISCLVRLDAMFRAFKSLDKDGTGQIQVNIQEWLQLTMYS
In short: (§1)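 Human calpains 1, 2 and 9 preincubated with inhibitor at 25 °C in 50 mM Tris pH 7.5, 100 mM NaCl, 1 mM DTT; reaction started with 5-FAM/QXL 520 FRET peptide plus CaCl2 for activation. Fluorescence (490/520 nm) followed 10 min; rates from 1-5 min slopes fitted to 4-parameter logistic for IC50.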

[2] = test system: Calpain activity in SH-SY5Y cells; test: SH-SY5Y + AMC fluorescence assay (Suc-LLVY-AMC substrate); type: cell-based
[3] = biological target: T2, Human Calpain 1/NS1 (Homo sapiens, UniProt P07384); test: Calpain inhibition continuous fluorescence (FRET) assay, Human Calpain 1/NS1; type: biochemical; conditions: read-out: Human Calpain 1/NS1 IC50
T2 sequence (P07384 1-714): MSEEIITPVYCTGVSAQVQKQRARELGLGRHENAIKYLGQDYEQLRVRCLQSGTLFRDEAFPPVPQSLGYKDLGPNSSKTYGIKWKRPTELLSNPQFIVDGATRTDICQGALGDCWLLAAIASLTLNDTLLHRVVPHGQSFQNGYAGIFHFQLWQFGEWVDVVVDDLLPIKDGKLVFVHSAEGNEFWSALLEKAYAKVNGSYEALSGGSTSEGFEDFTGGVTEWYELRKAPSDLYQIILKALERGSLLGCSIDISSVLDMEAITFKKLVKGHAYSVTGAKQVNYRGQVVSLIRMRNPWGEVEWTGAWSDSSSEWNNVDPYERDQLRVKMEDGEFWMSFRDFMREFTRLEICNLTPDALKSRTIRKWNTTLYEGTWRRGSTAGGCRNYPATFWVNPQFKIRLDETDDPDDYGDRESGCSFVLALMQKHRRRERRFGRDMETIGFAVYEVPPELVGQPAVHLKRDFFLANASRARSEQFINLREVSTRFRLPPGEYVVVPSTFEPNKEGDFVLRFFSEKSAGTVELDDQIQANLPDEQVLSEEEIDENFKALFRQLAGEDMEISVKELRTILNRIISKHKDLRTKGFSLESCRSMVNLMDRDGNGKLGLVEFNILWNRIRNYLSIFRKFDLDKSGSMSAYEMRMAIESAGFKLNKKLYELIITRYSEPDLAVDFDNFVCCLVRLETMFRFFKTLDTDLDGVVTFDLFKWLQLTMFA
T2 sequence (P04632 1-268 partner): T1 sequence (P04632 1-268 partner)
In short: as §1

[4] = biological target: T3, Human Calpain 9/NS1 (Homo sapiens, UniProt O14815); test: Calpain inhibition continuous fluorescence (FRET) assay, Human Calpain 9/NS1; type: biochemical; conditions: read-out: Human Calpain 9/NS1 IC50
T3 sequence (O14815 1-690): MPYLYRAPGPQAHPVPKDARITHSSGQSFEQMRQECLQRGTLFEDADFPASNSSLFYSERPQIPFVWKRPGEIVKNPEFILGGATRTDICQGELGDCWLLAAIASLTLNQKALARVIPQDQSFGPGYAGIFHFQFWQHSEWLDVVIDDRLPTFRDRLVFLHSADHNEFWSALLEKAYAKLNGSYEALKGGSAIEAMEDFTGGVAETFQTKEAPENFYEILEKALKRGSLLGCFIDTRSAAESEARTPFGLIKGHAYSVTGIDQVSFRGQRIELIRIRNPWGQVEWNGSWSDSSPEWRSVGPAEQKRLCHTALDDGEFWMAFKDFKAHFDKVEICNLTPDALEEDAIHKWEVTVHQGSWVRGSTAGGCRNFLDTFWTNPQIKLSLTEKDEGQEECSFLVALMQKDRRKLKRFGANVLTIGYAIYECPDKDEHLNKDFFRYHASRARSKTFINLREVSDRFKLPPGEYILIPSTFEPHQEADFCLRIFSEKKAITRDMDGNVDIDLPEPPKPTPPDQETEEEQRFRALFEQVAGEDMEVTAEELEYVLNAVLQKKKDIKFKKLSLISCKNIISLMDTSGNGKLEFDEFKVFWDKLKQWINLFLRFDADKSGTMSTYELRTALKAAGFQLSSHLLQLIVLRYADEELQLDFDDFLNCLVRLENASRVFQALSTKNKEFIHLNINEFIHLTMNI
T3 sequence (P04632 1-268 partner): T1 sequence (P04632 1-268 partner)
In short: as §1

[5] = Column E, read-out: SH-SY5Y + AMC IC50

SMILES | pIC50 [1] | pIC50 ([2]; read-out: SH-SY5Y + AMC IC50) | pIC50 [3] | pIC50 [4] | pIC50 ([1]; Column B) | pIC50 [2, 5] | pIC50 ([3]; Column A) | pIC50 ([4]; Column C) | pIC50 ([2]; read-out: SH-SY5Y + AMC IC50, Column E)
Cc1nc(-c2ccccc2)c(C(=O)N[C@@H](Cc2ccc(OS(=O)(=O)C(F)(F)F)cc2)C(=O)C(N)=O)o1 [Compound 355] | > 5.52 | 4.60 to 5.00 | > 5.52 | > 5.52 |  |  |  |  | 
O=C[C@H](Cc1ccccc1)NC(=O)c1csnc1-c1ccccc1 [Compound 9, (S)—N-(1-oxo-3-phenylpropan-2-yl)-3-phenylisothiazole-4-carboxamide] |  |  |  |  | > 5.52 | 4.60 to 5.00 | > 5.52 | > 5.52 | 
NC(=O)C(=O)[C@H](Cc1ccccc1)NC(=O)c1cc(Cl)nn1-c1ccccc1 [Compound 281, (S)—N-(4-amino-3,4-dioxo-1-phenylbutan-2-yl)-3-chloro-1-phenyl-1H-pyrazole-5-carboxamide] |  |  |  |  | > 5.52 | 4.60 to 5.00 | > 5.52 | > 5.52 | 
NC(=O)C(=O)C(Cc1ccccc1)NC(=O)[C@@H]1CC2(CC2)CN1c1ccccc1 (stereo partly drawn) [Compound 411, (6S)—N-(4-amino-3,4-dioxo-1-phenylbutan-2-yl)-5-phenyl-5-azaspiro[2.4]heptane-6-carboxamide] | > 5.52 | 4.60 to 5.00 | > 5.52 | > 5.52 |  |  |  |  | 
NC(=O)C(=O)[C@H](Cc1ccccc1)NC(=O)c1conc1-c1cccc(F)c1 [Compound 323, (S)—N-(4-amino-3,4-dioxo-1-phenylbutan-2-yl)-3-(3-fluorophenyl)isoxazole-4-carboxamide] | > 5.52 | < 4.60 | > 5.52 | > 5.52 |  |  |  |  | 
Cc1cc(C(=O)NC(Cc2ccccc2)C(O)C(N)=O)n(-c2ccnc(Cl)n2)n1 (centres unmarked) [Compound 434, N-(4-amino-3-hydroxy-4-oxo-1-phenylbutan-2-yl)-1-(2-chloropyrimidin-4-yl)-3-methyl-1H-pyrazole-5-carboxamide] | < 5.00 | < 4.60 | < 5.00 | < 5.00 |  |  |  |  | 
Cn1cc(C(=O)N[C@@H](Cc2ccccc2)C(=O)C(N)=O)c(-c2cccc(OC(F)(F)F)c2)n1 [Compound 184, (S)—N-(4-amino-3,4-dioxo-1-phenylbutan-2-yl)-1-methyl-3-(3-(trifluoromethoxy)phenyl)-1H-pyrazole-4-carboxamide] |  |  |  |  | > 5.52 | < 4.60 | > 5.52 | > 5.52 | 
Cc1nc(-c2ccccc2)c(C(=O)N[C@@H](Cc2ccccc2)C(=O)C(N)=O)s1 [Compound 25, (S)—N-(4-amino-3,4-dioxo-1-phenylbutan-2-yl)-2-methyl-4-phenylthiazole-5-carboxamide] |  |  |  |  | > 5.52 | 4.60 to 5.00 | > 5.52 | > 5.52 | 
Cc1ccccc1-c1nc(C(F)(F)F)oc1C(=O)NC(Cc1ccccc1)C(=O)C(N)=O (centres unmarked) [Compound 359, N-(4-amino-3,4-dioxo-1-phenylbutan-2-yl)-4-(o-tolyl)-2-(trifluoromethyl)oxazole-5-carboxamide] | > 5.52 | 4.60 to 5.00 | > 5.52 | > 5.52 |  |  |  |  | 
COCCOCCNC(=O)C(=O)[C@H](Cc1ccccc1)NC(=O)c1cn(C)nc1-c1ccccc1 [Compound 335, (S)—N-(4-((2-(2-methoxyethoxy)ethyl)amino)-3,4-dioxo-1-phenylbutan-2-yl)-1-methyl-3-phenyl-1H-pyrazole-4-carboxamide] | > 5.52 | > 5.00 | > 5.52 | > 5.52 |  |  |  |  | 
Cn1cc(C(=O)NC(C=O)c2ccccc2C(F)(F)F)c(-c2ccccc2F)n1 (centres unmarked) [Compound 519, 3-(2-Fluorophenyl)-1-METHYL-N-(2-oxo-1-(2-(trifluoromethyl)phenyl)ethyl)-1H-pyrazole-4-carboxamide] | < 5.00 | < 4.60 | < 5.00 | < 5.00 |  |  |  |  | 
Cn1cc(C(=O)NC(Cc2ccccc2)C(=O)C(N)=O)c(-c2ccsc2)n1 (centres unmarked) [Compound 503, N-(4-amino-3,4-dioxo-1-phenylbutan-2-yl)-1-methyl-3-(thiophen-3-yl)-1H-pyrazole-4-carboxamide] | > 5.52 | 4.60 to 5.00 | > 5.52 | > 5.52 |  |  |  |  | 
CNC(=O)CNC(=O)C(=O)[C@H](Cc1ccccc1)NC(=O)c1cn(C)nc1-c1ccccc1 [Compound 336, (S)-1-methyl-N-(4-((2-(methylamino)-2-oxoethyl)amino)-3,4-dioxo-1-phenylbutan-2-yl)-3-phenyl-1H-pyrazole-4-carboxamide] | > 5.52 | > 5.00 | > 5.52 | > 5.52 |  |  |  |  | 
NC(=O)C(=O)[C@H](Cc1ccccc1)NC(=O)c1cc(C(F)(F)F)nn1-c1ccccc1 [Compound 305, (S)—N-(4-amino-3,4-dioxo-1-phenylbutan-2-yl)-1-phenyl-3-(trifluoromethyl)-1H-pyrazole-5-carboxamide] | > 5.52 | > 5.00 | > 5.52 | > 5.52 |  |  |  |  | 
COC(=O)NCc1cccc(-n2nc(C)cc2C(=O)N[C@@H](Cc2ccccc2)C(=O)C(N)=O)c1 [Compound 140, Methyl (S)-(3-(5-((4-amino-3,4-dioxo-1-phenylbutan-2-yl)carbamoyl)-3-methyl-1H-pyrazol-1-yl)benzyl)carbamate] |  |  |  |  | > 5.52 |  | > 5.52 | > 5.52 | 4.60 to 5.00
NC(=O)C(=O)[C@H](Cc1ccccc1)NC(=O)c1cc(Cl)sc1-c1ccccc1 [Compound 271, (S)—N-(4-amino-3,4-dioxo-1-phenylbutan-2-yl)-5-chloro-2-phenylthiophene-3-carboxamide] |  |  |  |  | > 5.52 | < 4.60 | > 5.52 | > 5.52 | 
O=C[C@H](Cc1ccccc1)NC(=O)c1scnc1-c1ccccc1 [Compound 6, (S)—N-(1-oxo-3-phenylpropan-2-yl)-4-phenylthiazole-5-carboxamide] |  |  |  |  | > 5.52 | < 4.60 | > 5.52 | > 5.52 | 
